Experimental data: patent publication US5686418A, “Prolonging survival of transplanted pancreatic cells” (Biomeasure Incorporated, priority 1996, dated 1997)
pKi: −log10 of the molar value. Read-outs that look alike come from different tables or passages of the source. Where a SMILES comes first, the peptide text is derived from it. Bridges are numbered along the chain shown (N, C = ends). [ ]: non-standard residue; d: D form.

Legend:
human SSTR-5 = human SSTR-5 (Homo sapiens, UniProt P35346); assay: Somatostatin receptor binding assay, hSSTR-5
Sequence of human SSTR-5 (P35346 whole entry, the tested form may be a part): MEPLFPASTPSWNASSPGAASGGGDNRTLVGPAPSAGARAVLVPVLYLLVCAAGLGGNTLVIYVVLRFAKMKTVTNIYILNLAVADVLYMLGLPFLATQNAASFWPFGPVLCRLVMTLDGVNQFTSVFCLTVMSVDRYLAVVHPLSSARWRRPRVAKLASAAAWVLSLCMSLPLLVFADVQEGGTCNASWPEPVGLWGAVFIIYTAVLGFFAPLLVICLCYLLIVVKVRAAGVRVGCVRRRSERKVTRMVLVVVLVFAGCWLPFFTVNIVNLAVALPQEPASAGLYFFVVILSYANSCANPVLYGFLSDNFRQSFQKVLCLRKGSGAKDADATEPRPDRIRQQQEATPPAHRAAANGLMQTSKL
From the text: (§1) The human SSTR-1, SSTR-2, SSTR-3, SSTR-4, and SSTR-5 cDNA clones have been described (SSTR-1 and SSTR-2 in Yamada, Y., et al., Proc. Natl. Acad. Sci. USA., 89:251-255 (1992); SSTR-3 in Yamade, et al., Mol. Endocrinol. 6:2136-2142 (1993); and SSTR-4 and SSTR-5 in Yamada, et al., Biochem. Biophys. Res. Commun. 195:844-852 (1993)) and are also available from American Type Culture Collection (ATCC, Rockville, Md.) (ATCC Nos. 79044 (SSTR-1), 79046 (SSTR-2), and 79048 (SSTR-3)). […] Restriction endonucleases are available from New England Biolabs (Beverly, Mass.). This cDNA fragment was inserted into the mammalian expression vector, pCMV (Russell, D., et al., J. Biol. Chem., 264:8222-8229 (1989)), using standard molecular biology techniques (see e.g., Maniatis, T., et al., Molecular Cloning--A Laboratory Manual, Cold Spring Harbor Laboratory, 1982) to produce the expression plasmid, pCMV-human SSTR-1 through pCMV-human SSTR-5. Other mammalian expression vectors include pcDNA1/Amp (Invitrogen, Sandlesy, Calif.). The expression plasmids were introduced into the suitable bacterial host, E. Coli HB101 (Stratagene, La Jolla, Calif.) and plasmid DNAs, for transfection, were prepared on Cesium Chloride gradients.
(§2) CHO-K1 (ovary, Chinese hamster) cells were obtained from ATCC (ATCC No. CCL 61). […]

human SSTR-2 = human SSTR-2 (Homo sapiens, UniProt P30874); assay: Somatostatin receptor binding assay, hSSTR-2
Sequence of human SSTR-2 (P30874 whole entry): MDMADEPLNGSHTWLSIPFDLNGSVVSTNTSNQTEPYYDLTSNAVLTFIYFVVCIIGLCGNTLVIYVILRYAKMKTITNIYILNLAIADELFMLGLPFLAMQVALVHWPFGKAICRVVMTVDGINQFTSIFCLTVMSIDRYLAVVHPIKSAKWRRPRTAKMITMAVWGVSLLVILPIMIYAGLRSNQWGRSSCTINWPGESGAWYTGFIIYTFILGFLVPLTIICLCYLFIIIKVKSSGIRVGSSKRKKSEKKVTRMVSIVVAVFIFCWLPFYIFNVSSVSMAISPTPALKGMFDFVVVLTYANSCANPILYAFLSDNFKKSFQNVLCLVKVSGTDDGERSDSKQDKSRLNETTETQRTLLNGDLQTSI
From the text: as §1, §2

human SSTR-3 = human SSTR-3 (Homo sapiens, UniProt P32745); assay: Somatostatin receptor binding assay, hSSTR-3
Sequence of human SSTR-3 (P32745 whole entry): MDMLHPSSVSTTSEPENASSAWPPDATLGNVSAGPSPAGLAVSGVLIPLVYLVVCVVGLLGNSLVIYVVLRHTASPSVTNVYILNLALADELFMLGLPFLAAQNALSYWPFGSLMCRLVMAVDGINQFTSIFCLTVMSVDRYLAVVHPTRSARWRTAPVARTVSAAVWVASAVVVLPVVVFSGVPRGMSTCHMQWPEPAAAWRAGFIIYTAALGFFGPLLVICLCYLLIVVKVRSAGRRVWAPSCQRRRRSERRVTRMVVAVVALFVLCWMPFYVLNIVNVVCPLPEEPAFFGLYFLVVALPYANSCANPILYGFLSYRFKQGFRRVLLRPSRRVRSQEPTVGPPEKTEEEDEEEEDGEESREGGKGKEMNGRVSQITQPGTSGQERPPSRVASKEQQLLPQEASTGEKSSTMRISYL
From the text: as §1, §2

human SSTR-1 = human SSTR-1 (Homo sapiens, UniProt P30872); assay: Somatostatin receptor binding assay, hSSTR-1
Sequence of human SSTR-1 (P30872 whole entry): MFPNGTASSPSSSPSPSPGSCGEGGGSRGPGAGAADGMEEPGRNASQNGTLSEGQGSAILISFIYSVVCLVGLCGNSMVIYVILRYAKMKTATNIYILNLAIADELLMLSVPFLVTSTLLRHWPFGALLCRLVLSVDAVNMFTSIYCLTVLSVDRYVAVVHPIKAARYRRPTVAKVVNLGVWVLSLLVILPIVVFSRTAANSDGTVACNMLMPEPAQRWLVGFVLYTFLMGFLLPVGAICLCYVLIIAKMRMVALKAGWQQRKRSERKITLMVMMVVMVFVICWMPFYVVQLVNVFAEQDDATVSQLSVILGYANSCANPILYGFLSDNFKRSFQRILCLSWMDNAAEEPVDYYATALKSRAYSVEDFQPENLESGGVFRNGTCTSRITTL
From the text: as §1, §2

human SSTR-4 = human SSTR-4 (Homo sapiens, UniProt P31391); assay: Somatostatin receptor binding assay, hSSTR-4
Sequence of human SSTR-4 (P31391 whole entry): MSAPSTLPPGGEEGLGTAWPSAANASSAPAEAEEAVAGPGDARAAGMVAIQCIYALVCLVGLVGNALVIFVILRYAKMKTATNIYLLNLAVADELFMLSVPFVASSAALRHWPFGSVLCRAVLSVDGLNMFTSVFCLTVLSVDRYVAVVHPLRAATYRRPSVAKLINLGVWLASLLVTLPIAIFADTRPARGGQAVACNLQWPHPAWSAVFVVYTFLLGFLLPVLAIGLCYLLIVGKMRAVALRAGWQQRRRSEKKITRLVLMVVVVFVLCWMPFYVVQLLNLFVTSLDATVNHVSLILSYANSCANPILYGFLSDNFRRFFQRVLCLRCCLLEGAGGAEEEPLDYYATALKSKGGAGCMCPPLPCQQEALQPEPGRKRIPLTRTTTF
From the text: as §1, §2

C[C@@H](O)[C@@H]1NC(=O)[C@H](CCCCN)NC(=O)[C@@H](Cc2c[nH]c3ccccc23)NC(=O)[C@H](Cc2ccccc2)NC(=O)[C@H](Cc2ccccc2)NC(=O)[C@@H](N)CSSC[C@@H](C(N)=O)NC(=O)[C@H](Cc2ccccc2)NC1=O [BM-23268, H-Cys-Phe-Phe-D-Trp-Lys-Thr-Phe-Cys-NH2] (H-CFF[dW]KTFC-NH2; disulfide 1-8) gave a pKi (human SSTR-5; read-out: Ki hSSTR-5) of 9.42, a pKi (human SSTR-2) of 8.16 and a pKi (human SSTR-3) of 7.21. The pKi (human SSTR-1) was 7.91.

In the case of C[C@@H](O)[C@H](NC(=O)[C@H](Cc1ccccc1)NC(=O)[C@@H](NC(=O)[C@H](CCCCN)NC(=O)[C@@H](Cc1c[nH]c2ccccc12)NC(=O)[C@H](Cc1ccccc1)NC(=O)[C@H](Cc1ccccc1)NC(=O)[C@H](N)Cc1ccccc1)[C@@H](C)O)C(N)=O [BIM-23052, H-D-Phe-Phe-Phe-D-Trp-Lys-Thr-Phe-Thr-NH2] (H-[dF]FF[dW]KTFT-NH2), the pKi (human SSTR-5) was 8.91, the pKi (human SSTR-2) was 8.24 and the pKi (human SSTR-4) was 6.90. For the same compound, the pKi (human SSTR-3) was 8.25 and the pKi (human SSTR-1) was 7.01.
